The compounds below were run on H9c2 (assay: Cardioprotective activity against TNF-alpha induced rat H9c2 cells assessed as increase in cell viability at 2.5 uM pretreated with TNF-alpha for 1 hr followed by compound addition measured after 48 hrs by MTT assay relative to control).
Format: functional

Structure (SMILES)	Activity
CO[C@@H](CC/C=C\CCCCC(=O)CCCCC(=O)CCCCCCCCCCO[C@@H]1O[C@H](C(=O)O)[C@@H](O)[C@H](O)[C@H]1O)C(=O)NCCc1ccc(O)c(O)c1	18%
CO[C@@H](CC/C=C\CCCCC(=O)CCCCC(=O)CC/C=C\CCCCCCCCO[C@@H]1O[C@H](C(=O)O)[C@@H](O)[C@H](O)[C@H]1O)C(=O)NCCc1ccc(O)c(O)c1	25%
CO[C@@H](CC/C=C\CCCCC(=O)C1=C(CC/C=C\CCCCCCCCO[C@@H]2O[C@H](C(=O)O)[C@@H](O)[C@H](O)[C@H]2O)CCC1)C(=O)NCCc1ccc(O)c(O)c1	23%

— ChEMBL document CHEMBL5120810, “Toporosides A and B, Cyclopentenyl-Containing ω-Glycosylated Fatty Acid Amides, and Toporosides C and D from the Northwestern Pacific Marine Sponge Stelodoryx toporoki” (2022)
